Reference: patent publication US4600715A, “Benzodiazepine antagonistic β-carboline derivatives and compositions thereof” (Shering Aktiengesellschaft, priority 1983, dated 1986)
In brackets after ≈: the same amount, converted by molar mass.

Molecular target: benzodiazepine receptors
Assay: in vitro displacement of specific ^3 H flunitrazepam binding, cerebral membrane suspension
Details: ^3 H flunitrazepam 1.0 nM, 0° C.; rat cerebrum, pH 7.1; concentration effecting 50% displacement of specific binding

`CCc1noc(-c2cc3c(cn2)[nH]c2ccc(C(=O)N4CCCCC4)cc23)n1` [drawing 11, H, drawing 12, 3-(5'-[3'-ethyl-1',2',4'-oxadiazol]yl)-β-carboline-6-carboxylic acid piperidide] and `CCOC(=O)c1cc2c(cn1)[nH]c1ccc(C(=O)N3CCCCC3)cc12` [CO2 Et, H, drawing 10, 6-piperidinocarbonyl-β-carboline-3-carboxylic acid ethyl ester] are the same in “IC50 (in vitro), displacement activity” value: 0.6 ng/mL (≈ 1.6 nM) for the first, 0.6 ng/mL (≈ 1.71 nM) for the second.

`C=CCN(CC=C)C(=O)c1ccc2[nH]c3cnc(C(=O)OCC)c(C)c3c2c1` [CO2 Et, CH3, CON(Allyl)2, 6-N,N-diallylcarbamoyl-4-methyl-β-carboline-3-carboxylic acid ethyl ester] and `CCCOC(=O)c1ccc2[nH]c3cnc(C(=O)OCC)c(C)c3c2c1` [CO2 Et, Me, COOC3 H7, 6-propoxycarbonyl-4-methyl-β-carboline-3-carboxylic acid ethyl ester] are within 1.5-fold of each other in “IC50 (in vitro), displacement activity” value: 0.4 ng/mL (≈ 1.06 nM) for the first, 0.5 ng/mL (≈ 1.47 nM) for the second.

In the case of `CCOC(=O)c1ncc2[nH]c3ccc(C(=O)N(C)C)cc3c2c1COC` [CO2 Et, CH2 OCH3, CON(CH3)2, 6-N,N-dimethylcarbamoyl-4-methoxymethyl-β-carboline-3-carboxylic acid ethyl ester], the “IC50 (in vitro), displacement activity” value is reported as 1.3 ng/mL (≈ 3.66 nM).

Molecular target: benzodiazepine receptors
Assay: not given
Details: comparison compound marked *Nature 294: 472 (1981); ^3 H flunitrazepam 1.0 nM, 0° C.; cited from earlier work

In the case of `COC(=O)c1cc2c(cn1)[nH]c1ccccc12` [CO2 Me, H, H], the “IC50 (in vitro), displacement activity” value is given as 1.9 ng/mL (≈ 8.4 nM).
